Experimental data as given in US5492918A, “Use of substituted chromans, some of which are known, as medicaments, new active compounds and processes for their preparation” (Bayer Aktiengesellschaft, priority 1993, dated 1996).
Like-named read-outs stand apart in the source and are kept apart here.

What was measured:
HIV protease = biological target: T1, HIV protease (Human immunodeficiency virus type 1 group M subtype B, UniProt P04585); assay: biochemical; conditions: for inhibition at 200 µg/mL: read-out: % Inhibition at 200 μg/ml
T1 construct: purified HIV protease
Procedure: This is confirmed by an HIV-specific protease enzyme test.
The results of the examples shown below were determined by the HIV test system described in the following bibliographical references [cf. Hansen, J., Billich, S., Schulze, T., Sukrow, S. and Molling, K. (1988), EMBO Journal, Vol, 7, No. 6, pp. 1785-1791]: purified HIV protease was incubated with synthetic peptide which imitated a cleavage site in the Gag precursor protein and is an in vivo cleavage site of HIV protease. The resultant cleavage products of the synthetic peptide were analysed by means of reverse phase high performance liquid chromatography (RP-HPLC). The IC50 values indicated relate to the substance concentration which, under the abovementioned test conditions, causes a 50% inhibition of protease activity.

HIV = HIV infection in cell culture: suppression of virus-induced syncytia in human blood lymphocytes (PBL); type: cell-based; conditions: Human immunodeficiency virus 1, 72 h, 50% of virus-induced syncytia suppressed, day 3 to 6 after infection
Procedure: The HIV test was carried out with slight modifications by the method of Pauwels et al,. [cf. Journal of Virological Methods 20, (1988) , 309-321].
Normal human blood lymphocytes (PBLs) were concentrated on Ficoll Hypaque and stimulated with phytohaemagglutinin (90 μg/ml) and interleukin-2 (40 U/ml) in RPMI 1640, 20% foetal calf serum. For infection with the infectious HIV, PBLs were pelleted and the cell pellet was then suspended in 1 ml of HIV virus adsorption solution and incubated at 37° C for 1 hour.
Alternatively, HIV-susceptible H9 cells were employed instead of normal human blood lymphocytes for testing of the antiviral effects of the compounds according to the invention.
The virus adsorption solution was centrifuged and the infected cell pellet was taken up in growth medium such that a concentration of 1×10^5 cells per ml was set. The cells infected in this way were pipetted at 1×10^4 cells/well into the wells of 96-well microtitre plates.
The first vertical row of the microtitre plate contained only growth medium and cells which had not been infected but otherwise treated exactly as described above (cell control). […]
The test batches were incubated at 37° C until the syncytia formation typical of HIV occurred in the untreated virus control (between day 3 and 6 after infection), which was then assessed microscopically. […]

[1] = 200 μg/ml, purified HIV protease, synthetic peptide substrate, RP-HPLC

Compound: O=c1[nH]c2ccccc2n1C1CCN(CC2CCc3ccccc3O2)CC1 (centres unmarked) [Example 27]
- inhibition at 200 µg/mL (HIV protease): 81%

Compound: COc1cccc2c1O[C@H](C(=O)N1CCC(n3c(=O)[nH]c4ccccc43)CC1)CC2 [Example 25]
- inhibition at 200 µg/mL (HIV protease; [1]): 74%

Compound: O=c1[nH]c2ccccc2n1C1CCN(C[C@@H]2CCc3ccccc3O2)CC1 [Example 28]
- inhibition at 200 µg/mL (HIV protease): 94%

Compound: COc1cccc2c1OC(C(=O)N1CCC(n3c(=O)[nH]c4ccccc43)CC1)CC2 (centres unmarked) [Example 24]
- inhibition at 200 µg/mL (HIV protease; [1]): 99%

Compound: O=c1[nH]c2ccccc2n1C1CCN(CC2CCc3cccc(O)c3O2)CC1 (racemic) [Example 33, 8-Hydroxy-2-[4-(2-oxo-1-benzimidazolyl)piperidylmethyl]-chroman]
- inhibition at 200 µg/mL (HIV protease): 99%

Compound: O=C(C1CCc2ccccc2O1)N1CCC(n2c(=O)[nH]c3ccccc32)CC1 (centres unmarked) [Example 21]
- inhibition at 200 µg/mL (HIV protease; [1]): 65%

Compound: COc1cccc2c1OC(CN1CCC(n3c(=O)[nH]c4ccccc43)CC1)CC2 (centres unmarked) [Example 30]
- IC50 (HIV): 10 µM
- IC50 (HIV protease; 50% inhibition of protease activity, purified HIV protease, synthetic peptide substrate): 0.0002 µM
- inhibition at 200 µg/mL (HIV protease): 99%

Compound: COc1cccc2c1OC(C(=O)N1CCC(NC(=O)Nc3ccccc3)CC1)CC2 (centres unmarked) [Example 1, 8-Methoxy-2-[4-(phenylaminocarbonyl-amino)piperidylcarbonyl]-chroman]
- inhibition at 200 µg/mL (HIV protease; [1]): 99%

Compound: COc1cccc2c1O[C@H](CN1CCC(n3c(=O)[nH]c4ccccc43)CC1)CC2 [Example 31]
- IC50 (HIV): 10 µM
